Conditions: pH 7.5

## O=C([O-])/C=C\C(=O)[O-].[Sr+2] [Maleate, strontium maleate]
  solubility in buffered solution compared with pure water: decreased solubility

From US8183409B2, “High yield and rapid synthesis methods for producing metallo-organic salts” (Osteologix A/S, priority 2004, dated 2012)
